Columns and labels:
[1] = Inhibition of HIV-1 RT-RNase H using 18-nucleotide 3'-fluorescein-labeled RNA annealed to a complementary 18-nucleotide 5'-dabsyl-labeled DNA as substrate measured after 10 mins by FRET assay; design: species or system Human immunodeficiency virus 1
[2] = Cytotoxicity against human CEM-SS cells after 7 days by XTT assay; assay type: cell-based
[3] = tested on: Human immunodeficiency virus 1; experiment: Antiviral activity against HIV1 RF infected in human CEM-SS cells assessed as protection against viral-induced cytopathic effect after 7 days by XTT assay; assay type: functional, cell-based; details: Human immunodeficiency virus 1, RF, 168 h
[4] = tested on: Human immunodeficiency virus 1; experiment: Stabilization of HIV-1 RT-RNase H assessed as change in melting temperature at 20 uM by sypro-orange dye-based differential scanning fluorimetric analysis

Row | SMILES | IC50 [1] [µM] | CC50 at 168 h [2] [µM] | EC50 [3] [µM] | ΔTm [4] [°C]
1 | COC(=O)c1c(C)cc(O)c(=O)c(O)c1Br | 0.13 | 7.6 | 2.2 | 2.48
2 | COC(=O)c1cc(O)c(=O)c(O)cc1C | 0.16 | – | 7.5 | 2.7
3 | CCOC(=O)c1cc(O)c(=O)c(O)cc1C | 0.25 | – | 5 | 2.4
4 | CC(=O)c1cc(O)c(=O)c(O)cc1C | 0.29 | 20 | 6.9 | 2.9
5 | CC(C)c1ccc(O)c(=O)c(O)c1 | – | – | – | 2.3

Reference: ChEMBL document CHEMBL3992484, “Synthetic α-Hydroxytropolones as Inhibitors of HIV Reverse Transcriptase Ribonuclease H Activity” (Medchemcomm, 2016)
